Data: publication PMC3933419, “Synthesis and Properties of a Selective Inhibitor of Homeodomain–Interacting Protein Kinase 2 (HIPK2)” (PLoS ONE, 2014)

Tests used:
Test in all cases: Kinase panel selectivity profiling
Type in all cases: biochemical
ABL = ABL (Homo sapiens, UniProt P00519); details: TBID 1 μM, 125 kinase panel, read-out: % activity of the enzyme
From the text: (§1) The source of HIPK2 and of all of the other protein kinases used for specificity assays is as described elsewhere.
(§2) Conditions for the activity assays of all other protein kinases tested in selectivity experiments are as described or referenced in [9].

AMPK = details: TBID 1 μM, 125 kinase panel
From the text: as §1, §2

BTK = BTK (Homo sapiens, UniProt Q06187)
From the text: as §1, §2

CK1 = CK1 (Homo sapiens, UniProt P48730); details: TBID 1 μM, 125 kinase panel, read-out: % activity of the enzyme
From the text: as §1, §2

CK2 = CK2 (Homo sapiens, UniProt P68400)
From the text: as §1, §2

CLK2 = CLK2 (Homo sapiens, UniProt P49760); details: TBID 1 μM, 125 kinase panel, read-out: % activity of the enzyme
From the text: as §1, §2

DAPK1 = DAPK1 (Homo sapiens, UniProt P53355); details: TBID 1 μM, 125 kinase panel, read-out: % activity of the enzyme
From the text: as §1, §2

DYRK1A = DYRK1A (Homo sapiens, UniProt Q13627)
From the text: as §1, §2

EIF2AK3 = EIF2AK3 (Homo sapiens, UniProt Q9NZJ5); details: TBID 1 μM, 125 kinase panel, read-out: % activity of the enzyme
From the text: as §1, §2

EPH-A2 = EPH-A2 (Homo sapiens, UniProt P29317); details: TBID 1 μM, 125 kinase panel, read-out: % activity of the enzyme
From the text: as §1, §2

EPH-A4 = EPH-A4 (Homo sapiens, UniProt P54764); details: TBID 1 μM, 125 kinase panel, read-out: % activity of the enzyme
From the text: as §1, §2

EPH-B2 = EPH-B2 (Homo sapiens, UniProt P29323); details: TBID 1 μM, 125 kinase panel, read-out: % activity of the enzyme
From the text: as §1, §2

ERK1 = ERK1 (Homo sapiens, UniProt P27361); details: TBID 1 μM, 125 kinase panel, read-out: % activity of the enzyme
From the text: as §1, §2

ERK2 = ERK2 (Homo sapiens, UniProt P28482); details: TBID 1 μM, 125 kinase panel, read-out: % activity of the enzyme
From the text: as §1, §2

FGF-R1 = FGF-R1 (Homo sapiens, UniProt P11362); details: TBID 1 μM, 125 kinase panel, read-out: % activity of the enzyme
From the text: as §1, §2

HER4 = HER4 (Homo sapiens, UniProt Q15303); details: TBID 1 μM, 125 kinase panel, read-out: % activity of the enzyme
From the text: as §1, §2

HIPK2 = biological target: T1, HIPK2 (Homo sapiens, UniProt Q9H2X6)
T1 construct: The source of HIPK2 and of all of the other protein kinases used for specificity assays is as described elsewhere
From the text: as §1, §2

IGF-1R = IGF-1R (Homo sapiens, UniProt P08069); details: TBID 1 μM, 125 kinase panel, read-out: % activity of the enzyme
From the text: as §1, §2

IKKb = IKKb (Homo sapiens, UniProt O14920); details: TBID 1 μM, 125 kinase panel, read-out: % activity of the enzyme
From the text: as §1, §2

IKKe = IKKe (Homo sapiens, UniProt Q14164); details: TBID 1 μM, 125 kinase panel, read-out: % activity of the enzyme
From the text: as §1, §2

IR = IR (Homo sapiens, UniProt P06213); details: TBID 1 μM, 125 kinase panel, read-out: % activity of the enzyme
From the text: as §1, §2

IRAK1 = IRAK1 (Homo sapiens, UniProt P51617); details: TBID 1 μM, 125 kinase panel, read-out: % activity of the enzyme
From the text: as §1, §2

IRR = IRR (Homo sapiens, UniProt P14616); details: TBID 1 μM, 125 kinase panel, read-out: % activity of the enzyme
From the text: as §1, §2

JAK2 = JAK2 (Homo sapiens, UniProt O60674); details: TBID 1 μM, 125 kinase panel, read-out: % activity of the enzyme
From the text: as §1, §2

JNK1 = JNK1 (Homo sapiens, UniProt P45983); details: TBID 1 μM, 125 kinase panel, read-out: % activity of the enzyme
From the text: as §1, §2

MARK1 = MARK1 (Homo sapiens, UniProt Q9P0L2); details: TBID 1 μM, 125 kinase panel, read-out: % activity of the enzyme
From the text: as §1, §2

MINK1 = MINK1 (Homo sapiens, UniProt Q8N4C8); details: TBID 1 μM, 125 kinase panel, read-out: % activity of the enzyme
From the text: as §1, §2

MKK2 = MKK2 (Homo sapiens, UniProt P36507); details: TBID 1 μM, 125 kinase panel, read-out: % activity of the enzyme
From the text: as §1, §2

MLK1 = MLK1 (Homo sapiens, UniProt P80192); details: TBID 1 μM, 125 kinase panel, read-out: % activity of the enzyme
From the text: as §1, §2

MST4 = MST4 (Homo sapiens, UniProt Q9P289); details: TBID 1 μM, 125 kinase panel, read-out: % activity of the enzyme
From the text: as §1, §2

NEK6 = NEK6 (Homo sapiens, UniProt Q9HC98); details: TBID 1 μM, 125 kinase panel, read-out: % activity of the enzyme
From the text: as §1, §2

OSR1 = OSR1 (Homo sapiens, UniProt O95747); details: TBID 1 μM, 125 kinase panel, read-out: % activity of the enzyme
From the text: as §1, §2

PAK2 = PAK2 (Homo sapiens, UniProt Q13177); details: TBID 1 μM, 125 kinase panel, read-out: % activity of the enzyme
From the text: as §1, §2

PAK5 = PAK5 (Homo sapiens, UniProt Q9P286); details: TBID 1 μM, 125 kinase panel, read-out: % activity of the enzyme
From the text: as §1, §2

PKCa = PKCa (Homo sapiens, UniProt P17252); details: TBID 1 μM, 125 kinase panel, read-out: % activity of the enzyme
From the text: as §1, §2

PKD1 = PKD1 (Homo sapiens, UniProt Q15139); details: TBID 1 μM, 125 kinase panel, read-out: % activity of the enzyme
From the text: as §1, §2

PRK2 = PRK2 (Homo sapiens, UniProt Q16513); details: TBID 1 μM, 125 kinase panel, read-out: % activity of the enzyme
From the text: as §1, §2

SRPK1 = SRPK1 (Homo sapiens, UniProt Q96SB4); details: TBID 1 μM, 125 kinase panel, read-out: % activity of the enzyme
From the text: as §1, §2

SYK = SYK (Homo sapiens, UniProt P43405); details: TBID 1 μM, 125 kinase panel, read-out: % activity of the enzyme
From the text: as §1, §2

TTBK1 = TTBK1 (Homo sapiens, UniProt Q5TCY1); details: TBID 1 μM, 125 kinase panel, read-out: % activity of the enzyme
From the text: as §1, §2

TTK = TTK (Homo sapiens, UniProt P33981); details: TBID 1 μM, 125 kinase panel, read-out: % activity of the enzyme
From the text: as §1, §2

[1] = 10 µM TBID, panel of 76 protein kinases, read-out: residual activity
[2] = TBID 1 μM, 125 kinase panel, read-out: % activity of the enzyme

T1 sequence (Q9H2X6 whole entry): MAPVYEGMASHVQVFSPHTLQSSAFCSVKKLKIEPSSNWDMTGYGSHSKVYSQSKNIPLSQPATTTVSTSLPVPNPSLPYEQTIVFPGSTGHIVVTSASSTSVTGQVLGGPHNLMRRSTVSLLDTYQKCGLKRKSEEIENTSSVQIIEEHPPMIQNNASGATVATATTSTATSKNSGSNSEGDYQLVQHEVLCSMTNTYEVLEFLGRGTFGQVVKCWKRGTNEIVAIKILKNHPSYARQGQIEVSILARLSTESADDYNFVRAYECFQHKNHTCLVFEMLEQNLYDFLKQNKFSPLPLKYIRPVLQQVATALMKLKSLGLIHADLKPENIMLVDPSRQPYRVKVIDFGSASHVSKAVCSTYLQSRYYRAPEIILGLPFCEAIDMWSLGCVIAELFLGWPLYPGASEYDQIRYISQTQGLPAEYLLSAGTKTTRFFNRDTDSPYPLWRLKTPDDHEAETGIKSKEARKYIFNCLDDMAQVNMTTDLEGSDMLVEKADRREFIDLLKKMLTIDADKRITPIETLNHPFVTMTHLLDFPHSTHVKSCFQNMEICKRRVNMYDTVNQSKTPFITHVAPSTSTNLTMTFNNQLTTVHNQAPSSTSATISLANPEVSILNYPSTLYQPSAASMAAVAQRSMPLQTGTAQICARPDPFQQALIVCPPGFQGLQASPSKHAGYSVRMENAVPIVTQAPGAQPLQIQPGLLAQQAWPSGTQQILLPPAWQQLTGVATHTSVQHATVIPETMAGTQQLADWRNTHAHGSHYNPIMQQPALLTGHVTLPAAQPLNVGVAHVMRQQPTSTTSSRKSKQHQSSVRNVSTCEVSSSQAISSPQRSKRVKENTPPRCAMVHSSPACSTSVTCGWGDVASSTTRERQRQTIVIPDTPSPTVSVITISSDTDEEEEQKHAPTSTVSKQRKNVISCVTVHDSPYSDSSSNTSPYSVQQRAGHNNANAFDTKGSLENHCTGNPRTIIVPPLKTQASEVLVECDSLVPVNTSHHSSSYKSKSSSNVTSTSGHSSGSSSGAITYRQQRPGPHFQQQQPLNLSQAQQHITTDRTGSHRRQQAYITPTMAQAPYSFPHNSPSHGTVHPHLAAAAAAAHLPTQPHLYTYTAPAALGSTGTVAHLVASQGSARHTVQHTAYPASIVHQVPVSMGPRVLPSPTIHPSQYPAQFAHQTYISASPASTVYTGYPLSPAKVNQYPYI
Chain of CK2 (P68400 whole entry): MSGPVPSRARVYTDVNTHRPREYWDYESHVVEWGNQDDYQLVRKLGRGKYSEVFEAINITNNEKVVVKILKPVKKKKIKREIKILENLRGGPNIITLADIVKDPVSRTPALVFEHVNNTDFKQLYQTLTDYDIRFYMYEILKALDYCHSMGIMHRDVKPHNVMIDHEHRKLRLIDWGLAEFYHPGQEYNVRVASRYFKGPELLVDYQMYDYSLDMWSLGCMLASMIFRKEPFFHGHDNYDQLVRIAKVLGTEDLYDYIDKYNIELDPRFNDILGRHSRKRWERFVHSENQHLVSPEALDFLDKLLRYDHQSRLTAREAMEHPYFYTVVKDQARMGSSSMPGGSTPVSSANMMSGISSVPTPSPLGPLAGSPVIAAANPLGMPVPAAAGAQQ
Chain of BTK (Q06187 whole entry): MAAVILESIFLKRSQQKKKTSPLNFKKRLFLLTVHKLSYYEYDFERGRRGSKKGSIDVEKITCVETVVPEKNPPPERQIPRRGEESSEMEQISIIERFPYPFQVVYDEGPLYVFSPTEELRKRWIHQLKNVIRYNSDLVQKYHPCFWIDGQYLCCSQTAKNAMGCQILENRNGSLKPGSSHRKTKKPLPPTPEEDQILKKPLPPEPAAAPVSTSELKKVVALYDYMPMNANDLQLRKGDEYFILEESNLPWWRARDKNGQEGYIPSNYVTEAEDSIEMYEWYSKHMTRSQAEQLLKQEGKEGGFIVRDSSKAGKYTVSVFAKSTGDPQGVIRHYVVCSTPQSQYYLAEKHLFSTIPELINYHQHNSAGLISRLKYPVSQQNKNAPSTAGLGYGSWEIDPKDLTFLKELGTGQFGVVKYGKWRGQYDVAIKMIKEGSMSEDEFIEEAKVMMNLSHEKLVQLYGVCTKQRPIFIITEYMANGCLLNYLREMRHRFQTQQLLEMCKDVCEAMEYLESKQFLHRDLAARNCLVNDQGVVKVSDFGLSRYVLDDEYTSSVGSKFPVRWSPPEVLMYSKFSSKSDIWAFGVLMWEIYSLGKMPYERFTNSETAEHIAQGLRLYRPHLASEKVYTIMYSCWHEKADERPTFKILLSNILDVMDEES
Chain of EIF2AK3 (Q9NZJ5 30-1116): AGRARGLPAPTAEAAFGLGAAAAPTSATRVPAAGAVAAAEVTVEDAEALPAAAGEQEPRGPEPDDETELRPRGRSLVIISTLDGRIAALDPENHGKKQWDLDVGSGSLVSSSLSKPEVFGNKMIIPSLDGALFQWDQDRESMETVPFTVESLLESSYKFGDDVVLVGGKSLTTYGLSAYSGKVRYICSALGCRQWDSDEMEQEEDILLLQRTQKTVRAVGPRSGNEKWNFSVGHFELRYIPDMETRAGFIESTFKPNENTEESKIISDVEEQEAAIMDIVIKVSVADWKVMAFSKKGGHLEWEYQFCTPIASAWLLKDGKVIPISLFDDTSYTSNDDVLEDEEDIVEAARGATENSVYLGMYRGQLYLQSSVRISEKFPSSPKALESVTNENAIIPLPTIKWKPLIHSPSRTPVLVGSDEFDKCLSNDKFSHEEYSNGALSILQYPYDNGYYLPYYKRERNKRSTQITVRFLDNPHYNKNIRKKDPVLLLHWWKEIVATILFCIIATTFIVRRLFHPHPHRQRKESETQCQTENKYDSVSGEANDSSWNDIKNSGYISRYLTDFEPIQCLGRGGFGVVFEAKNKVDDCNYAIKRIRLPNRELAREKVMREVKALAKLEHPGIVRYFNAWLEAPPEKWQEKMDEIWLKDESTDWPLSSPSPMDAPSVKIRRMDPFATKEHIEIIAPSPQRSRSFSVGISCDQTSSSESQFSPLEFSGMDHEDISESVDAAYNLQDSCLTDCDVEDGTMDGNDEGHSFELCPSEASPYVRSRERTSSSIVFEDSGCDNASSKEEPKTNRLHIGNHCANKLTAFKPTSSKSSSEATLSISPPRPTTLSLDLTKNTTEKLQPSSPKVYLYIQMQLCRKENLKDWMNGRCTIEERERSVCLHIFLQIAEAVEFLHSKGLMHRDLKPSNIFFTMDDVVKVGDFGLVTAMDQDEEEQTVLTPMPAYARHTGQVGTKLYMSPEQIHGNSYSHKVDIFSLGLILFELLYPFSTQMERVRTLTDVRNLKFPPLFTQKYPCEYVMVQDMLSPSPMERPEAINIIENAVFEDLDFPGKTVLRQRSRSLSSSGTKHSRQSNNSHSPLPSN
Chain of JNK1 (P45983 whole entry): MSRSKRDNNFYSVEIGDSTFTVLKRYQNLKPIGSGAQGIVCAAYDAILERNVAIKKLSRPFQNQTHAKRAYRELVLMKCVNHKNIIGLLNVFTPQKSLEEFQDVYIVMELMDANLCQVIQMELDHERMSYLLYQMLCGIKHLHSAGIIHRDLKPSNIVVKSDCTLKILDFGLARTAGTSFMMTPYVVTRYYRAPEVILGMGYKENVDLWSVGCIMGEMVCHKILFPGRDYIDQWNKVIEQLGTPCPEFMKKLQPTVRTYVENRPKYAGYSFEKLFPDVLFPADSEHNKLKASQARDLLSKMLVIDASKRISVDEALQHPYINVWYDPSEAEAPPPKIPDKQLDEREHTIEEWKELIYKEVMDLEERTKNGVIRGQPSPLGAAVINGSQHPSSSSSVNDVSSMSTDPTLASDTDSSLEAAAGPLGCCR
Chain of MLK1 (P80192 whole entry): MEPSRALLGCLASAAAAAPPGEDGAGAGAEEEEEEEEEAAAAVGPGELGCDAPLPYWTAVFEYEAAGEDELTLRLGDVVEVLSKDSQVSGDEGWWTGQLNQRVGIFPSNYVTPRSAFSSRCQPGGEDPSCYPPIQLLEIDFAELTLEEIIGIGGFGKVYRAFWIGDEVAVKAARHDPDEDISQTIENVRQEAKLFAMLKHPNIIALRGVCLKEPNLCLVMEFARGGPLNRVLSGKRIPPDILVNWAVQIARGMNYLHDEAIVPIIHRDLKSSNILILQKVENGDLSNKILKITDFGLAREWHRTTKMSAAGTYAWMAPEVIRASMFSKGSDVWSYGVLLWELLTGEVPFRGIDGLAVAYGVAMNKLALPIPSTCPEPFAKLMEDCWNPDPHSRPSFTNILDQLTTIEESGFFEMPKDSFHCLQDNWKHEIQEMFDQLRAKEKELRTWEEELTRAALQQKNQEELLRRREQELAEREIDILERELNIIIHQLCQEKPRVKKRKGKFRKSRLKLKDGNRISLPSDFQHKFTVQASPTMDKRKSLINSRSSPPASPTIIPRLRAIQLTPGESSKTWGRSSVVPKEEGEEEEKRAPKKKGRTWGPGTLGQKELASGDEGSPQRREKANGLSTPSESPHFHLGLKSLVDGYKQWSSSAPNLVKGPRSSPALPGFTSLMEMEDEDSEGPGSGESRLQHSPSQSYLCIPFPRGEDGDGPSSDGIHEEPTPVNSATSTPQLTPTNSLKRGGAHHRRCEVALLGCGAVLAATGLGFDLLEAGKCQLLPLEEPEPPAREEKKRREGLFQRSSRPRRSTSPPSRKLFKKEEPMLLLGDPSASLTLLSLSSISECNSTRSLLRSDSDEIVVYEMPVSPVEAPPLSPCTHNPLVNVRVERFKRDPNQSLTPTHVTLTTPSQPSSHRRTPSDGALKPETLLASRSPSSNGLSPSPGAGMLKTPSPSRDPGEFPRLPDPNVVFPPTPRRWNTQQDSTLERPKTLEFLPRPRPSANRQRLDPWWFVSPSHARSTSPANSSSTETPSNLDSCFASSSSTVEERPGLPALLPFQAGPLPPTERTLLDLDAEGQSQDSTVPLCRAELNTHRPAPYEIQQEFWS

`O=C1c2c(Br)c(Br)c(Br)c(Br)c2C(=O)N1c1ncc[nH]1` [TBID, 4,5,6,7-Tetrabromo-2-(1H-imidazol-2-yl)isoindoline-1,3-dione] was tested, and the activity at 1 µM (ABL) was 99%, the “% activity of the enzyme” value (AMPK) was 87% and the remaining activity at 10 µM (BTK; [1]) was 29%. The activity at 1 µM (BTK; [2]) was 84%, the activity at 1 µM (CK1) was 105% and the remaining activity at 10 µM (CK2; [1]) was 48%. For the same molecule, the activity at 1 µM (CK2; [2]) was 87%, the activity at 1 µM (CLK2) was 101% and the activity at 1 µM (DAPK1) was 92%. The remaining activity at 10 µM (DYRK1A; [1]) was 72%, the activity at 1 µM (DYRK1A; [2]) was 104% and the activity at 1 µM (EIF2AK3) was 107%. The activity at 1 µM (EPH-A2) was 89%, the activity at 1 µM (EPH-A4) was 100% and the activity at 1 µM (EPH-B2) was 108%. The activity at 1 µM (ERK1) was 98%, the activity at 1 µM (ERK2) was 91% and the activity at 1 µM (FGF-R1) was 104%. For the same molecule, the activity at 1 µM (HER4) was 91%, the residual activity (HIPK2; 10 µM TBID, panel of 76 protein kinases) was “entirely suppressed” and the activity at 1 µM (HIPK2; [2]) was 31%. It also gave an activity at 1 µM (IGF-1R) of 68%, an activity at 1 µM (IKKb) of 99% and an activity at 1 µM (IKKe) of 85%. It also gave an activity at 1 µM (IR) of 101%, an activity at 1 µM (IRAK1) of 82% and an activity at 1 µM (IRR) of 100%. For the same molecule, the activity at 1 µM (JAK2) was 114%, the activity at 1 µM (JNK1) was 106% and the activity at 1 µM (MARK1) was 102%. The activity at 1 µM (MINK1) was 91%, the activity at 1 µM (MKK2) was 96% and the activity at 1 µM (MLK1) was 83%. The activity at 1 µM (MST4) was 108%, the activity at 1 µM (NEK6) was 105% and the activity at 1 µM (OSR1) was 103%. The activity at 1 µM (PAK2) was 97%, the activity at 1 µM (PAK5) was 105% and the activity at 1 µM (PKCa) was 102%. The activity at 1 µM (PKD1) was 98%, the activity at 1 µM (PRK2) was 96% and the activity at 1 µM (SRPK1) was 77%. For the same molecule, the activity at 1 µM (SYK) was 108%, the activity at 1 µM (TTBK1) was 113% and the activity at 1 µM (TTK) was 92%.
